Experimental data from US8653046B2, “Controlling transgene expression across the skin” (ETH Zurich, priority 2009, dated 2014).

Columns and labels:
TtgK (TtgR-KRAB) = test: PEACE-ON: SEAP expression of CHO-K1 co-transfected with pMG28 (PSV40-TtgK-pA) and pMG27 (PTtgRON-SEAP-pA); type: cell-based; settings: phloretin 0-50 μM, 48 h
Protocol: (C) SEAP expression profiles of CHO-K1 transiently transfected with pMG28 (PSV40-TtgK-pA) and pMG27 (PTtgRON-SEAP-pA) and cultivated for 48 h in the presence of different phloretin concentrations (0-50 μM).
By fusing TtgR to the human Kruppel-associated box-protein (KRAB) (Moosmann P., Georgiev O., Thiesen H. J., Hagmann M., Schaffner W., […], Biol Chem 378(7):669-677) a synthetic mammalian transrepressor (TtgK) is created, which is able to bind and inhibit transcription from a promoter (PTtgRON) harboring eight OTtgR-elements located 3′ of a constitutive simian virus 40 promoter (PSV40), in a phloretin-responsive manner (FIGS. 10A and B). Co-transfection of the constitutive TtgK expression vector pMG28 (PSV40-TtgK-pA) and pMG27 (PTtgRON-SEAP-pA) encoding a TtgK-specific PTtgRON-driven SEAP expression unit, results in low-level, basal SEAP expression (2.3±0.26 U/L). […]

TtgA1 (TtgR-VP16) = TtgA1 (TtgR-VP16) (Pseudomonas putida, UniProt Q9AIU0); test: Time-delayed induction of SEAP production of CHO-PEACE8 in bioreactor; type: cell-based; set-up: expressed in transfected cells; host or cells: CHO-K1 (transient pMG11 or pMG13); also HEK-293, BHK-21, COS-7, HaCaT, HT-1080, NIH/3T3, primary human fibroblasts and keratinocytes; settings: 1 L bioreactor, start doses 60, 80 or 100 μM phloretin
TtgA1 (TtgR-VP16), sequence (Q9AIU0 whole entry, added parts left off): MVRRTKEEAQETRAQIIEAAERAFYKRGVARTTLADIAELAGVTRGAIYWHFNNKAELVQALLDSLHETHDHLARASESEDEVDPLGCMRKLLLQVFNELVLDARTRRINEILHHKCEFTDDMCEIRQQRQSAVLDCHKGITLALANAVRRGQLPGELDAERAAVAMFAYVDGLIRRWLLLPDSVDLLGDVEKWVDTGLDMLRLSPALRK
Protocol: 2×10^3 cells/mL CHO-PEACE8 are cultivated in a bioreactor containing 1 L culture medium supplemented with either 60, 80 or 100 μM phloretin and SEAP production is profiled for 211 h. Owing to a defined phloretin degradation profile in culture and a precise induction threshold of 40 μM phloretin, the onset of SEAP production can be programmed to occur at a very precise point in time by defining the cell density and the phloretin concentration at production start.
Since phloretin is a non-toxic fruit component, it is an ideal product gene inducer for biopharmaceutical manufacturing scenarios, which require precise timing or dosing of difficult-to-express protein pharmaceuticals. Also, since phloretin has a determined half-live of 70 h in mammalian cell culture systems any production culture can be programmed to start product gene expression at a predefined point in time as phloretin concentrations drop below a repressing threshold level. A 1 L BioWave® bioreactor is inoculated with 2×10^3 CHO-PEACE8 and different transgene-repressing phloretin doses of 60, 80 or 100 μM. While CHO-PEACE8 grows exponentially from the start of the bioprocess, SEAP production gradually increases once phloretin is degraded to non-repressive levels (40 μM; FIG. 8). […]

O=C(CCc1ccc(O)cc1)c1c(O)cc(O)cc1O [phloretin, 3-[4-hydroxyphenyl]-1-[2,4,6-trihydroxyphenyl]-1-propanone]
SEAP expression dose response (PEACE-ON) (TtgK (TtgR-KRAB)): dose-dependent induction of SEAP expression | induction threshold (non-repressive phloretin level) for SEAP production (TtgA1 (TtgR-VP16)): 40 µM
